Data from ChEMBL document CHEMBL1201862, “PubChem BioAssay data set” (2004).
Calls of active or inactive are those of the source.

Columns and labels:
[1] = target: T1, Heat shock factor protein 1 (Mus musculus, UniProt P38532); assay: decrease of HSF1-responsive luciferase luminescence – cell-based, NIH3T3, dose retest, confirmation (AID 2382); type: functional;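 also: NIH3T3 fibroblasts with HSF1-driven luciferase reporter stressed by proteasome inhibitor MG132; luminescence from HSF1-driven luciferase expression after 8 hours of MG132 stress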
T1 sequence (P38532 whole entry): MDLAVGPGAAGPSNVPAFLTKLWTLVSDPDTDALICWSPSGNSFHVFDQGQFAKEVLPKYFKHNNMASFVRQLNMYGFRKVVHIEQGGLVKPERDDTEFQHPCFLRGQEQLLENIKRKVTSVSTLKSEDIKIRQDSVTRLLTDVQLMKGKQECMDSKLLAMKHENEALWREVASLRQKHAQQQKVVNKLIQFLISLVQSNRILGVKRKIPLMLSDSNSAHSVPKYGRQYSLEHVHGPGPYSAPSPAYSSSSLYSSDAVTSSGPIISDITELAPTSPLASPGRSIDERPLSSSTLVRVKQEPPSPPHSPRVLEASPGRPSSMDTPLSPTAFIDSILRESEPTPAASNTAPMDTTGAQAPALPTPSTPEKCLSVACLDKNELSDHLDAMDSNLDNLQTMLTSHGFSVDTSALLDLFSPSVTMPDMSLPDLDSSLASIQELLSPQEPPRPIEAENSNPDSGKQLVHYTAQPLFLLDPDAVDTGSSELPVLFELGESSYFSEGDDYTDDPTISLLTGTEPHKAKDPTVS

[2] = target: Scavenger receptor class B member 1 (Mus musculus, UniProt Q61009); assay: mouse SR-BI DiI-HDL uptake blockers – ldlA[mSR-BI] cells, fluorescence, cherry pick, dose response (AID 493194); type: functional, cell-based;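 also: cellular uptake of fluorescent DiI-labeled HDL measured as cell fluorescence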
[3] = target: Polyadenylate-binding protein 1 (Homo sapiens, UniProt P11940); assay: PABP inhibition in translation initiation, SAR follow-up (AID 435018); type: functional
[4] = target: Eukaryotic translation initiation factor 4H (Homo sapiens, UniProt Q15056); assay: inhibitors of translation initiation factor eIF4H – SAR follow-up (AID 435011); type: functional
[5] = target: Envelope glycoprotein gp160 (Human immunodeficiency virus 1, UniProt Q6QLK5); assay: cell-free HIV fusion peptide-binding blockers – biochemical, uHTS, fluorescence dequenching, […] (AID 1986)
[6] = target: T2, Low molecular weight phosphotyrosine protein phosphatase (Homo sapiens, UniProt P24666); type: functional; conditions: read-out: IC50_Mean
T2 sequence (P24666 whole entry): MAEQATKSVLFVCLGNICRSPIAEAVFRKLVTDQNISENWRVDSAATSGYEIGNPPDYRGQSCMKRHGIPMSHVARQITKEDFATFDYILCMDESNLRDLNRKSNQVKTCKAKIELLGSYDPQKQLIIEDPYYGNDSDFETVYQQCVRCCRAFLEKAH

[7] = target: T2, Low molecular weight phosphotyrosine protein phosphatase; type: functional; conditions: read-out: IC50_Mean; remark: listed apart in the source
[8] = target: T3, Carboxy-terminal domain RNA polymerase II polypeptide A small phosphatase 1 (Homo sapiens, UniProt Q9GZU7); assay: CTDSP1 inhibitors, concentration-response, biochemical, absorbance readout, ultra-high-throughput screen actives (AID 540297); type: functional
T3 sequence (Q9GZU7 whole entry): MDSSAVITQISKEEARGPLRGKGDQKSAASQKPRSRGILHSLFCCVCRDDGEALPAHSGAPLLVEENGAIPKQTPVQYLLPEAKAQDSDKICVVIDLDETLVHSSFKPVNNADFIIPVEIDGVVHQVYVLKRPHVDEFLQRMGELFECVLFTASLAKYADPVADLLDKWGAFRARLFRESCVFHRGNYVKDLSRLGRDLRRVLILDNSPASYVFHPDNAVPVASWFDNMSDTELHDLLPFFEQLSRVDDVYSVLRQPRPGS

[9] = target: T4, Tyrosine-protein phosphatase non-receptor type 22 (Homo sapiens, UniProt Q9Y2R2); assay: PTPN22 enzyme inhibitors – biochemical, fluorescence, LYP catalytic domain, selectivity assay for LMPTP inhibitor project, dose response (AID 652006); type: functional; conditions: read-out: IC50_Mean
T4 sequence (Q9Y2R2 whole entry): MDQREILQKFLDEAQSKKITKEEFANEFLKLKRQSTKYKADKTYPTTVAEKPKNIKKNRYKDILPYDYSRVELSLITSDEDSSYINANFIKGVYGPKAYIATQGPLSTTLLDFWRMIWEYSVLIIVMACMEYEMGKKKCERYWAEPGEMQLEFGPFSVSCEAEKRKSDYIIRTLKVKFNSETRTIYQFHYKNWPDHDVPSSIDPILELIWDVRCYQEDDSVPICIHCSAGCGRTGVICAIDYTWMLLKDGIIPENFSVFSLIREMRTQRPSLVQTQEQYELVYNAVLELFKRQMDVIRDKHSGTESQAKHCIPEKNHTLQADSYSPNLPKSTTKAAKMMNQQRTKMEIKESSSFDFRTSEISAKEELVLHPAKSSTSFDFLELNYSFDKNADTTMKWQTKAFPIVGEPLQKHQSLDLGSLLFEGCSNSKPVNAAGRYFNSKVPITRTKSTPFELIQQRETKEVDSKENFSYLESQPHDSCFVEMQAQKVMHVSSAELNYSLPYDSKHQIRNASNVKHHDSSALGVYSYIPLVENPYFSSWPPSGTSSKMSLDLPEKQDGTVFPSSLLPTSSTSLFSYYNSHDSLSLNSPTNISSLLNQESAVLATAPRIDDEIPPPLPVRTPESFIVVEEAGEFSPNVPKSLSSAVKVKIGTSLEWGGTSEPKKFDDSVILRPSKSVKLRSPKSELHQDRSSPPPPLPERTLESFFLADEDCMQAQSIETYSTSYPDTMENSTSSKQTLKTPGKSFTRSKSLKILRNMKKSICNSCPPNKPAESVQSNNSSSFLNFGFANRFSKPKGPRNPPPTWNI

Genome polyprotein = Genome polyprotein (dengue virus type 2, UniProt P29990); assay: flavivirus cap methylation enzyme inhibition – biochemical, confirmation dose response, primary screen (AID 588689); type: functional
Vero = assay: viability of Vero cells under compound – cytotoxicity control for flavivirus capping enzyme inhibitors (AID 588742); type: functional; conditions: Chlorocebus sabaeus
Trypsin = Trypsin (Sus scrofa, UniProt P00761); assay: trypsin protease activity blockade – biochemical, quenched peptide fluorescence, cherry-pick, selectivity assay for Rce1 protease inhibitor project, dose response (AID 488789)
BJ [10] = assay: BJ-TERT fibroblast viability loss – cell-based, RAS-independent, luminescence, dose response (AID 1933); type: functional; conditions: Homo sapiens
[11] = target: NACHT, LRR and PYD domains-containing protein 1 (Homo sapiens, UniProt Q9C000); assay: NALP1 inhibitors in yeast, dose response, luminescent (AID 488860); type: functional
Saccharomyces cerevisiae = assay: S. cerevisiae Caspase-1/ASC signal blockers IC50, NALP1 inhibitor project selectivity test (AID 488863); type: functional, organism-based
BJ [12] = assay: BJ-TERT-LT-ST fibroblast viability loss – cell-based, RAS-independent, luminescence, dose response (AID 1935); type: functional; conditions: Homo sapiens;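 also: BJ fibroblasts immortalized with TERT plus LT and ST oncogenes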
BJ [13] = assay: cells; type: functional, cell-based; conditions: Homo sapiens
[14] = DRD fibroblast viability loss – cell-based, non-viral oncogenic, luminescence, dose response (AID 1934); type: functional; conditions: Homo sapiens
Wee1-like protein kinase = Wee1-like protein kinase (Homo sapiens, UniProt P30291); assay: HeLa cell cycle G2/M accumulation – FACS, mechanism study for Wee1 degradation inhibitor project, late-stage follow-up, panel member Wee1 Degradation (AID 2088)
[15] = target: G2/mitotic-specific cyclin-B1 (Homo sapiens, UniProt P14635); assay: HeLa cell cycle G2/M accumulation – FACS, mechanism study for Wee1 degradation inhibitor project, late-stage follow-up, panel member Cyclin B Degradation (AID 2088)
[16] = Cytotoxicity screening for potential Inhibitors of Bacterial Capsule Biogenesis. [Related pubchem assays (depositor defined):AID488970]; type: functional
HeLa = assay: ATP-based viability loss in HeLa cells – cell-based, CellTiter-Glo luminescence, cherry-pick samples, cytotoxicity control for MITF activator project, dose response (AID 540259); type: functional; conditions: Homo sapiens
cells [17] = type: functional, cell-based
ORF 73 = ORF 73 (Human herpesvirus 8, UniProt O40947); assay: KSHV LANA DNA-binding disruption – biochemical, fluorescence polarization, cherry-picked samples, dose response (AID 504725); parameters: species or system Human gammaherpesvirus 8;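 also: fluorescence polarization of a labeled DNA duplex reporting LANA DNA binding; potency is for inhibitors that block LANA binding to the DNA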
cells [18] = type: functional, cell-based; remark: listed apart in the source
[19] = HEK-293T viability loss after treatment – luminescence, T-cell screen hits, cytotoxicity control for TCR NF-kB inhibitor project, dose response (AID 489026); type: functional, cell-based;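 also: cells exposed to compound about 14 hours before the viability readout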
[20] = target: T5, Corticotropin-releasing factor receptor 2/Corticotropin-releasing factor-binding protein (Homo sapiens, UniProt P24387+Q13324); assay: activators of CRF receptor 2 with binding protein – uHTS hits, confirmation (AID 602473); type: functional; conditions: read-out: EC50_Mean
T5 sequence (Q13324 whole entry): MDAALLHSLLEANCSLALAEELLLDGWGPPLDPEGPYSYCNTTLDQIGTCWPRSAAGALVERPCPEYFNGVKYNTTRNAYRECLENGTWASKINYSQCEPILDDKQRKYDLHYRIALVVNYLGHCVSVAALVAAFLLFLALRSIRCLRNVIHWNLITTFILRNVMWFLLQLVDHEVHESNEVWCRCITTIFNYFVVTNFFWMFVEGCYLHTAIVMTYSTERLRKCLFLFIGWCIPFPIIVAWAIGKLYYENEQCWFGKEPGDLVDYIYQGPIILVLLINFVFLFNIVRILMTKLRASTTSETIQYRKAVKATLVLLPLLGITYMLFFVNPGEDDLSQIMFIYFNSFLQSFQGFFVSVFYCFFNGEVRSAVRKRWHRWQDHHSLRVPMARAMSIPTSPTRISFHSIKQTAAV
T5 sequence (P24387 whole entry): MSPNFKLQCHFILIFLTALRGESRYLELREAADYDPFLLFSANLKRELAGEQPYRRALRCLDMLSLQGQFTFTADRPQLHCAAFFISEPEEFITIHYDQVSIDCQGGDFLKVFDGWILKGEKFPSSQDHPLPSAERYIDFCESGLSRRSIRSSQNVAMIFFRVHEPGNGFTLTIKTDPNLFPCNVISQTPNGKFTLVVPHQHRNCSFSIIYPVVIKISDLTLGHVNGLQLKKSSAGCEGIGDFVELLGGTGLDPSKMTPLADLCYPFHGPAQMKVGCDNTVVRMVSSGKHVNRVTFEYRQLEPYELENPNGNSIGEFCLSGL

[21] = NIH-3T3 fibroblast cytotoxicity, dose response, cytotoxicity control, cell-based, fluorescence, Alamar Blue, secondary assay (AID 2327); type: functional;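 also: NIH-3T3 mouse fibroblasts cultured with fluconazole at 8 µg/mL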
[22] = target: T6, Mannose-6-phosphate isomerase (Homo sapiens, UniProt P34949); assay: MPI enzyme activity inhibition – biochemical, fluorescence intensity, coupled assay, primary screen (AID 1209)
T6 sequence (P34949 whole entry): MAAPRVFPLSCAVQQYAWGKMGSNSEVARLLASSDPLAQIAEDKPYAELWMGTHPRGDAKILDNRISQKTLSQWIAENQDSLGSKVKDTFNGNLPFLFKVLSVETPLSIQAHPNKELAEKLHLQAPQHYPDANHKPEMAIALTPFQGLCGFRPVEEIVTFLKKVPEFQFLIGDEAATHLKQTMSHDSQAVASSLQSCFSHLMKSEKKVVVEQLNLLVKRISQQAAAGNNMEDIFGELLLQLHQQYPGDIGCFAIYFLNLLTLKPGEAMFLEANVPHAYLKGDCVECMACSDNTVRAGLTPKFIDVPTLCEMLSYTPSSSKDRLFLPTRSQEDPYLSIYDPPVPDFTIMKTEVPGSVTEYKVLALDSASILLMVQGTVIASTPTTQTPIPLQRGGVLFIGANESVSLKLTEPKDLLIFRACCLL

Nonstructural protein 1 = Nonstructural protein 1 (Influenza A virus, UniProt Q194T2); type: functional, Influenza A virus (A/California/07/2009(H1N1))
Beta-galactosidase = Beta-galactosidase (Escherichia coli, UniProt Q8VNN2); assay: detection-enzyme interference by beta-gal modulators – biochemical, E. coli enzyme, set 3, artefact control for CCR6 antagonist project, dose response (AID 504712); type: functional
[23] = fluconazole-exposed Candida albicans growth modulators – fluorescence, retest, confirmation (AID 2467); type: functional, cell-based
[24] = target: T6, Mannose-6-phosphate isomerase; assay: MPI inhibition at elevated mannose 6-phosphate – biochemical, fluorescence intensity, high mannose 6-phosphate, primary screen (AID 1220)

Sequence of NACHT, LRR and PYD domains-containing protein 1 (Q9C000 1-1212 limits assumed): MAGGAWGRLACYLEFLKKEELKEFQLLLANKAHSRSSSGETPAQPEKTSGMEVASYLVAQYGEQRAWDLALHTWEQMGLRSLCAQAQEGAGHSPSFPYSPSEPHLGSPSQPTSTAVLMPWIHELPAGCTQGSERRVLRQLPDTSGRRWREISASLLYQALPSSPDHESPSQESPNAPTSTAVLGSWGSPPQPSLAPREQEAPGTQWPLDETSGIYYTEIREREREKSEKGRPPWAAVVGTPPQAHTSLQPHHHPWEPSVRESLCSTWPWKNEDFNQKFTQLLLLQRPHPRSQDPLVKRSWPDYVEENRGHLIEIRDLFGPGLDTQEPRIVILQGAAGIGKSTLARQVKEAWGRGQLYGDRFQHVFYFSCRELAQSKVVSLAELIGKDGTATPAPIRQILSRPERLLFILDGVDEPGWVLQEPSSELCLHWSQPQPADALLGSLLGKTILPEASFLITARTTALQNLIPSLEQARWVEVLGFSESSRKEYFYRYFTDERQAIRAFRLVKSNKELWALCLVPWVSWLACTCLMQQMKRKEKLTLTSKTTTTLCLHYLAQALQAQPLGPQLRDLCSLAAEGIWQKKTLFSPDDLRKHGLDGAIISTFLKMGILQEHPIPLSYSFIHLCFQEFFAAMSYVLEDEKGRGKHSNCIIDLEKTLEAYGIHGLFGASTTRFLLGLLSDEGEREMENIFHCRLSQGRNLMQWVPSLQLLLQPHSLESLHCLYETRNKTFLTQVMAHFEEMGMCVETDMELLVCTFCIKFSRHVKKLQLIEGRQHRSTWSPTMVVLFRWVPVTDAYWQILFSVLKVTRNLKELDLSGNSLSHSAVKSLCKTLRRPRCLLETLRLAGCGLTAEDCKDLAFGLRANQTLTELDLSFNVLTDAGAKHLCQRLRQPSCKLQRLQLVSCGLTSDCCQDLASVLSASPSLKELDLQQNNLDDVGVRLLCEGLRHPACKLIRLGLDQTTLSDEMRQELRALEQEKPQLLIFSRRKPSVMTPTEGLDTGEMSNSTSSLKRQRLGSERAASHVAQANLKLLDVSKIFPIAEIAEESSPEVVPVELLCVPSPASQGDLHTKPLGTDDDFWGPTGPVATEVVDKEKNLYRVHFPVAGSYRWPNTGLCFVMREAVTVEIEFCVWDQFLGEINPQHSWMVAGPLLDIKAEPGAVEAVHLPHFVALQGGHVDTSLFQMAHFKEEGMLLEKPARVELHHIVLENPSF
Sequence of NACHT, LRR and PYD domains-containing protein 1 (Q9C000 1213-1473 limits assumed): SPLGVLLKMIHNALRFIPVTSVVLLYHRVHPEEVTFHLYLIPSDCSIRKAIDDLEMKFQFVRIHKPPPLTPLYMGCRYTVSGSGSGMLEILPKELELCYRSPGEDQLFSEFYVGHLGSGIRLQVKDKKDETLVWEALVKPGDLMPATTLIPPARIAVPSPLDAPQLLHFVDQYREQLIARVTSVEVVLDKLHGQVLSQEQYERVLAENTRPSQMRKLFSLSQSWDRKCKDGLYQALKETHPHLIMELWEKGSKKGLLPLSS
Sequence of Wee1-like protein kinase (P30291 whole entry): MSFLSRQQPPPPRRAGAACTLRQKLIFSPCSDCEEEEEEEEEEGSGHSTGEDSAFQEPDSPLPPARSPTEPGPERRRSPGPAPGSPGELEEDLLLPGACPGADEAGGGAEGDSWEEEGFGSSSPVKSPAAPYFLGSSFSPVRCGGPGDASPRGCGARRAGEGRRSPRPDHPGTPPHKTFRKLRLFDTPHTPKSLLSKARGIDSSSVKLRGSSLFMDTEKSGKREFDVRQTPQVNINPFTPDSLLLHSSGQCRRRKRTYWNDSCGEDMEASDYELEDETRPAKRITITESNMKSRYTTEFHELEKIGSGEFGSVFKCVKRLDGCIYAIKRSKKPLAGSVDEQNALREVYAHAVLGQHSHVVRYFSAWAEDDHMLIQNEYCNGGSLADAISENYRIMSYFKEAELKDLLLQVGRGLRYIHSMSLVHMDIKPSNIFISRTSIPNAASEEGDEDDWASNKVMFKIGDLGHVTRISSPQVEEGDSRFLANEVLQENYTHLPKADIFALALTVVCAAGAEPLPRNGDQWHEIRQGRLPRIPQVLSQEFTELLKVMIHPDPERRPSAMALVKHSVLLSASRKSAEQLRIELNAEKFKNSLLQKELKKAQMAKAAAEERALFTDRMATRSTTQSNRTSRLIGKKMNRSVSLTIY
Sequence of Envelope glycoprotein gp160 (Q6QLK5 whole entry, the tested form may be a part): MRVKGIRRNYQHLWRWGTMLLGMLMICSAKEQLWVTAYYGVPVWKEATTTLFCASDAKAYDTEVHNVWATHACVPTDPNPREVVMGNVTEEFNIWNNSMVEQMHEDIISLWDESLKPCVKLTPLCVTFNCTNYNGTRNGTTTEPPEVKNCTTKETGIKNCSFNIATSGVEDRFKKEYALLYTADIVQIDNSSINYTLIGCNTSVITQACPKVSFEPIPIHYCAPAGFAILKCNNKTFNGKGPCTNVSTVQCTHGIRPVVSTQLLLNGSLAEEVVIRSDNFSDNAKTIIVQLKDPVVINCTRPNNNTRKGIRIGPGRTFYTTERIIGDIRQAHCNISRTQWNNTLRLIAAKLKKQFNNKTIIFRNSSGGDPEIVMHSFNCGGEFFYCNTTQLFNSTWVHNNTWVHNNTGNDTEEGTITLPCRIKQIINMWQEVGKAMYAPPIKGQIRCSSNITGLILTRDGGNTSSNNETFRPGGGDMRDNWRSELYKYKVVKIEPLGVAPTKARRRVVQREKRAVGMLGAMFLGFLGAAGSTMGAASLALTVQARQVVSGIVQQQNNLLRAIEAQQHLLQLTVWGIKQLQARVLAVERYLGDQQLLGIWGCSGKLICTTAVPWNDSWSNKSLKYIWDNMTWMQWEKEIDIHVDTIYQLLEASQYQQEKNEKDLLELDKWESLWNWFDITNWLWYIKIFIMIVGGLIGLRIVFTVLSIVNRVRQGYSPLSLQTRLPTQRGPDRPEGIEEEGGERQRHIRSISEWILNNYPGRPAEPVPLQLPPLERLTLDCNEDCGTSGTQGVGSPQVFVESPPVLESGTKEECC
Sequence of Polyadenylate-binding protein 1 (P11940 whole entry): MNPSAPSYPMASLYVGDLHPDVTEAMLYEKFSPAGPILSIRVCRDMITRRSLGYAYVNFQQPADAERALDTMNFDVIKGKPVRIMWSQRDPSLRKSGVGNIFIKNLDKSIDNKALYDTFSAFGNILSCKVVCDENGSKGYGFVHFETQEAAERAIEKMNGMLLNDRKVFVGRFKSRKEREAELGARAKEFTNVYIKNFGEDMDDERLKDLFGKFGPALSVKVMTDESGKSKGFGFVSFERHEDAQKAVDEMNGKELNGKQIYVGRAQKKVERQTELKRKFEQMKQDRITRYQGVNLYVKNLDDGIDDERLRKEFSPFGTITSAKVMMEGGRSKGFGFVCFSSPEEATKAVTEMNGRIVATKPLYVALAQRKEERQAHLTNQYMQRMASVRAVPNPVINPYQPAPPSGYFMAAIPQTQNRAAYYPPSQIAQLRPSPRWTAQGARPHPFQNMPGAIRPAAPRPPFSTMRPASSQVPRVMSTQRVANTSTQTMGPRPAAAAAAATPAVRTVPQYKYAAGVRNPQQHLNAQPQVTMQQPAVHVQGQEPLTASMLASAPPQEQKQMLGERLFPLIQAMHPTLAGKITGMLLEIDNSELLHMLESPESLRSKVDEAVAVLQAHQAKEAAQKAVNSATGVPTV
Sequence of Nonstructural protein 1 (Q194T2 whole entry): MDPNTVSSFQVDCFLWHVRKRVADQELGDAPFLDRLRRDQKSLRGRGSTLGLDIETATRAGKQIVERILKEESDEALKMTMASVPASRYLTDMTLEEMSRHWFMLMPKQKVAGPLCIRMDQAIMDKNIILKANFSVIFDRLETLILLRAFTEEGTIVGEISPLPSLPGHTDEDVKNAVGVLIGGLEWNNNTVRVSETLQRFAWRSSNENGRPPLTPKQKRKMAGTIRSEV
Sequence of Scavenger receptor class B member 1 (Q61009 whole entry): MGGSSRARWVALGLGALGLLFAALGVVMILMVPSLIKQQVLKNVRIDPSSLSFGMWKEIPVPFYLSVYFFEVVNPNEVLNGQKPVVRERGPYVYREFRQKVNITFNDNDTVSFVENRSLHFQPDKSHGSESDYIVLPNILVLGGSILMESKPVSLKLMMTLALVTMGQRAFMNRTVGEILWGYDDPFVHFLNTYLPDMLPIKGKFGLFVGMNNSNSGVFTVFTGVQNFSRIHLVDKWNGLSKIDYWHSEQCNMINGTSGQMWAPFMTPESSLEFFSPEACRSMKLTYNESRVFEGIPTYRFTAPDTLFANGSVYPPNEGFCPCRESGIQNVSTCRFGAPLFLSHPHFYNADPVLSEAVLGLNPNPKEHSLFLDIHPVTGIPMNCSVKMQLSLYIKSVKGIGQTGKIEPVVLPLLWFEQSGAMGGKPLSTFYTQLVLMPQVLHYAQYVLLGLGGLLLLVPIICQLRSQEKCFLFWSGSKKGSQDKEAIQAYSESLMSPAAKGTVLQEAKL
Sequence of Trypsin (P00761 whole entry): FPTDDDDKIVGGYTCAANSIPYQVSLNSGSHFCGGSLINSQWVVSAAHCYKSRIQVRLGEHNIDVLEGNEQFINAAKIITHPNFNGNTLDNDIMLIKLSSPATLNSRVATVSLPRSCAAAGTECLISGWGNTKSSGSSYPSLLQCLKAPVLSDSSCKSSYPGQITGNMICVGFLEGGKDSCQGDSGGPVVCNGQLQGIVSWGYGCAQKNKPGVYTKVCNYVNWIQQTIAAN

## CCOc1ccccc1/C=C/c1onc(C)c1S(=O)(=O)N1CCC(C(=O)NC(C)(C)C)CC1
[1]
  EC50: > 195 µM (not active)
[2]
  AC50: 0.05 µM (active)

## O=C(CSc1ccc(-c2ccco2)nn1)Nc1ccccc1
[3]
  IC50: > 100 µM (inactive)
[4]
  IC50: 84.4 µM (active)

## Cc1c(CCC(=O)O)c(=O)oc2c(C)c3occ(-c4ccc(Cl)cc4)c3cc12
[5]
  IC50: 15.1 µM (active)
[6]
  IC50: 8.61 µM (active)
[7]
  IC50: 19.1 µM (active)
[8]
  IC50: 4.89 µM (active)
[9]
  IC50: 22.4 µM (inactive)
Genome polyprotein
  IC50: 42.2 µM (active)
Vero
  CC50: > 40 µM (active)

## Cc1ccc(O)c(CNc2cnc3ccccc3c2)c1
Trypsin
  AC50: 12.8 µM (active)

## CCN1/C(=C/C=C/C=C/c2sc3ccccc3[n+]2CC)Sc2ccccc21 [DITHIAZANINE IODIDE]
BJ [10]
  EC50: 1.7 µM (inconclusive)
[11]
  IC50: 19.5 µM (active)
Saccharomyces cerevisiae
  IC50: > 100 µM (inactive)
BJ [12]
  EC50: 3 µM (inconclusive)
BJ [13]
  EC50: 2.04 µM (inconclusive)
[14]
  EC50: 1.68 µM (inconclusive)

## Cc1cc(=O)[nH]c(-n2nc(C)cc2NC(=O)CCc2ccccc2)n1
Wee1-like protein kinase
  EC50: > 16.6 µM (active)
[15]
  EC50: > 49.7 µM (inactive)

## CCc1ccc(NC(=O)c2ccc3nc(N)sc3c2)cc1
[16]
  CC50: 54 µM (active)
HeLa
  AC50: 47.4 µM (active)

## O=C(OCCN1C(=O)c2cccc3c(N4CCOCC4)ccc(c23)C1=O)c1ccc(Cl)cc1
Cells [17]
  EC50: > 350 µM (not active)
ORF 73
  AC50: 29.3 µM (active)
Cells [18]
  EC50: > 350 µM (not active)
[19]
  IC50: > 80 µM (inactive)
[20]
  EC50: 5.89 µM (active)

## Cc1n[nH]c(=S)n(NC(=O)CC(=O)Nn2c(=S)[nH]nc(C)c2=O)c1=O
[21]
  EC50: > 150 µM (inactive)
[22]
  IC50: > 50 µM (not active)
Nonstructural protein 1
  IC50: 6.42 µM (active)
Beta-galactosidase
  IC50: > 66.6 µM (inactive)
[23]
  EC50: 4.66 µM (active)
[24]
  IC50: > 50 µM (not active)
